Patent US20240131045A1, “METHODS FOR TREATMENT OF VIRAL INFECTIONS” (priority 2022, published 2024)
Like-named read-outs stand apart in the source and are kept apart here.

What was measured:
[1] = human, in vivo
[2] = both, human, in vivo
[3] = Phase 1 study, safety and tolerability in healthy participants
[4] = Urine PK and renal clearance of compound 1, Phase 1 study
[5] = human, in vivo, 500 mg
[6] = Phase 1 single- and multiple-ascending dose study, compound 1 plasma PK in healthy participants
[7] = Intracellular PK of compound A (GS-443902) in PBMCs, Phase 1 study; conditions: healthy participants
[8] = human, in vivo; remark: listed apart in the source
Excerpt: To note, eGFR was estimated using Modification of Diet in Renal Disease (MDRD) equation shown below. Furthermore, participants with kidney failure who were on dialysis are not included in this regression analysis.

[9] = in vivo; conditions: monkey

CC(C)C(=O)OC[C@H]1O[C@@](C#N)(c2ccc3c(N)ncnn23)[C@H](O)[C@@H]1O [compound 16, obeldesivir]
compound 1 metabolite renal clearance [1]: 150 to 180 mL/min | compound 1 terminal plasma elimination half-life [2]: 6 to 7 h | Compound 1 plasma AUC (AUCinf) ([2]; 100 mg): 3700 ng·h/mL | Compound 1 plasma Cmax ([2]; 100 mg): 570 ng/mL | Compound 1 plasma t1/2 ([2]; 100 mg): 5.85 h | Compound 1 plasma AUC (AUCinf) ([2]; 300 mg): 10,400 h · ng/mL | Compound 1 plasma Cmax ([2]; 300 mg): 1830 ng/mL | Compound 1 plasma Tmax ([2]; 300 mg): 0.78 h | Compound 1 plasma Cmax ([2]; 500 mg): 3820 ng/mL | Compound 1 plasma AUC (AUCD1) ([2]; 900 mg): 32,000 h · ng/mL | Compound 1 plasma AUC (AUCinf) ([2]; 900 mg): 34,600 h · ng/mL | Compound 1 plasma AUC (AUCtau) ([2]; 900 mg): 35,700 h · ng/mL | Compound 1 plasma Tmax ([2]; 900 mg): 1.5 h | Compound 1 plasma t1/2 ([2]; 900 mg): 7.36 h | Compound 1 plasma AUC (AUCinf) ([2]; 1600 mg): 48,300 h · ng/mL | Compound 1 plasma Cmax ([2]; 1600 mg): 7170 ng/mL | Compound 1 plasma Tmax ([2]; 1600 mg): 1.5 h | Compound 1 plasma t1/2 ([2]; 1600 mg): 15.7 h | plasma half-life of metabolite compound 1 ([2]; po): ~6 h | AE ([3]; 500 mg BID (n = 6)): 2 n | AE related to study drug ([3]; 500 mg BID (n = 6)): 1 n | Grade 2 creatinine clearance decrease ([3]; 500 mg BID (n = 6)): 0 n | Grade 2 laboratory abnormalities ([3]; 500 mg BID (n = 6)): 0 n | Grade 3 laboratory abnormalities ([3]; 500 mg BID (n = 6)): 0 n | Grade 3 lipase increase ([3]; 500 mg BID (n = 6)): 0 n | Grade ≥3 AE ([3]; 500 mg BID (n = 6)): 0 n | AE ([3]; 900 mg QD (n = 6)): 1 n | AE related to study drug ([3]; 900 mg QD (n = 6)): 0 n | Grade 2 creatinine clearance decrease ([3]; 900 mg QD (n = 6)): 2 n | Grade 2 laboratory abnormalities ([3]; 900 mg QD (n = 6)): 2 n | Grade 3 laboratory abnormalities ([3]; 900 mg QD (n = 6)): 0 n | Grade 3 lipase increase ([3]; 900 mg QD (n = 6)): 0 n | Grade ≥3 AE ([3]; 900 mg QD (n = 6)): 0 n | participants with headache (Grade 1) attributed to study drug ([3]; 2 of 8 participants, Cohort 5 (500 mg BID for 5 days)): 25% | participants with contact dermatitis ([3]; 2 of 48 participants): 4.2% | participants with study drug-related AEs (headaches) ([3]; 2 of 58 participants who received compound 16): 3.4% | participants with headache ([3]; 3 of 48 participants): 6.3% | participants with decreased creatinine clearance ([3]; 6 of 8 participants, Cohort 4 (1,600 mg single dose)): 75% | participants with treatment-emergent adverse events (TEAEs) ([3]; 10 of 48 participants, compound 16 or placebo, Cohorts 1-6): 21% | participants with decreased creatinine clearance ([3]; 13 of 48 participants overall): 27% | participants with a decrease in creatinine clearance ([3]; 18 of 58 participants who received compound 16): 31% | participants with graded postbaseline laboratory abnormalities ([3]; 25 of 48 participants): 52.1% | Grade 3 or higher AEs ([3]; 48 participants, Cohorts 1-6): no Grade 3 or higher AEs | serious AEs ([3]; 48 participants, Cohorts 1-6): no serious AEs | Grade 3 laboratory abnormality (lipase elevation at Day 3) ([3]; Cohort 2 (300 mg single dose)): one Grade 3 laboratory abnormality | changes in vital signs, electrocardiograms (ECGs), visual acuity, or fundoscopic examinations ([3]; Cohorts 1-6): no clinically relevant changes | safety and tolerability ([3]; Example 2, Cohorts 1-6, compound 16 or placebo): safe and well tolerated | safety and tolerability ([3]; Example 4, healthy participants): safe and well tolerated | AE ([3]; Fasted 500 mg (n = 11)): 3 n | AE related to study drug ([3]; Fasted 500 mg (n = 11)): 1 n | Grade 2 creatinine clearance decrease ([3]; Fasted 500 mg (n = 11)): 2 n | Grade 2 laboratory abnormalities ([3]; Fasted 500 mg (n = 11)): 2 n | Grade 3 laboratory abnormalities ([3]; Fasted 500 mg (n = 11)): 0 n | Grade 3 lipase increase ([3]; Fasted 500 mg (n = 11)): 0 n | Grade ≥3 AE ([3]; Fasted 500 mg (n = 11)): 0 n | AE ([3]; Fed 500 mg (n = 11)): 1 n | AE related to study drug ([3]; Fed 500 mg (n = 11)): 0 n | Grade 2 creatinine clearance decrease ([3]; Fed 500 mg (n = 11)): 5 n | Grade 2 laboratory abnormalities ([3]; Fed 500 mg (n = 11)): 5 n | Grade 3 laboratory abnormalities ([3]; Fed 500 mg (n = 11)): 0 n | Grade 3 lipase increase ([3]; Fed 500 mg (n = 11)): 0 n | Grade ≥3 AE ([3]; Fed 500 mg (n = 11)): 0 n | AE ([3]; single dose 100 mg (n = 6)): 1 n | AE related to study drug ([3]; single dose 100 mg (n = 6)): 0 n | Grade 2 creatinine clearance decrease ([3]; single dose 100 mg (n = 6)): 0 n | Grade 2 laboratory abnormalities ([3]; single dose 100 mg (n = 6)): 1 n | Grade 3 laboratory abnormalities ([3]; single dose 100 mg (n = 6)): 0 n | Grade 3 lipase increase ([3]; single dose 100 mg (n = 6)): 0 n | Grade ≥3 AE ([3]; single dose 100 mg (n = 6)): 0 n | AE ([3]; single dose 300 mg (n = 6)): 0 n | AE related to study drug ([3]; single dose 300 mg (n = 6)): 0 n | Grade 2 creatinine clearance decrease ([3]; single dose 300 mg (n = 6)): 1 n | Grade 2 laboratory abnormalities ([3]; single dose 300 mg (n = 6)): 1 n | Grade 3 laboratory abnormalities ([3]; single dose 300 mg (n = 6)): 1 n | Grade 3 lipase increase ([3]; single dose 300 mg (n = 6)): 1 n | Grade ≥3 AE ([3]; single dose 300 mg (n = 6)): 0 n | AE ([3]; single dose 900 mg (n = 6)): 0 n | AE related to study drug ([3]; single dose 900 mg (n = 6)): 0 n | Grade 2 creatinine clearance decrease ([3]; single dose 900 mg (n = 6)): 2 n | Grade 2 laboratory abnormalities ([3]; single dose 900 mg (n = 6)): 2 n | Grade 3 laboratory abnormalities ([3]; single dose 900 mg (n = 6)): 0 n | Grade 3 lipase increase ([3]; single dose 900 mg (n = 6)): 0 n | Grade ≥3 AE ([3]; single dose 900 mg (n = 6)): 0 n | AE ([3]; single dose 1600 mg (n = 6)): 2 n | AE related to study drug ([3]; single dose 1600 mg (n = 6)): 0 n | Grade 2 creatinine clearance decrease ([3]; single dose 1600 mg (n = 6)): 6 n | Grade 2 laboratory abnormalities ([3]; single dose 1600 mg (n = 6)): 6 n | Grade 3 laboratory abnormalities ([3]; single dose 1600 mg (n = 6)): 0 n | Grade 3 lipase increase ([3]; single dose 1600 mg (n = 6)): 0 n | Grade ≥3 AE ([3]; single dose 1600 mg (n = 6)): 0 n | compound 16 in urine ([4]; in vivo): not detectable | Compound 1 plasma AUC0-24 [5]: 20,903 h · ng/mL | Compound 1 plasma AUCinf [5]: 22,100 h · ng/mL | Compound 1 plasma AUClast [5]: 22,000 h · ng/mL | Compound 1 plasma Cmax [5]: 3600 ng/mL | Compound 1 plasma t1/2 [5]: 6.3 h | target therapeutic exposures of plasma compound 1 and intracellular compound A ([6]; 900 mg QD and 500 mg BID for 5 days, respectively): reached or exceeded | dose proportionality of compound 1 PK ([6]; 1600 mg dose): less than dose-proportional increases | dose proportionality of compound 1 PK ([6]; 100 to 900 mg range): linear and dose-proportional PK | compound 16 prodrug levels in plasma ([6]; healthy participants): either undetectable or low and transient | intracellular concentrations of compound A in PBMCs versus dose [7]: Dose-proportional increases

CCC(CC)COC(=O)[C@H](C)N[P@](=O)(OC[C@H]1O[C@@](C#N)(c2ccc3c(N)ncnn23)[C@H](O)[C@@H]1O)Oc1ccccc1 [remdesivir]
compound 1 renal clearance (CLr) after remdesivir or compound 16 administration ([4]; amount excreted in urine over the corresponding plasma AUC): comparable | plasma increase of compound 1 AUCinf [8]: ~35% | plasma increase of compound 1 Cmax [8]: ~10%

N#C[C@@]1(c2ccc3c(N)ncnn23)O[C@H](CO)[C@@H](O)[C@H]1O [compound 1]
AUC(0-t) [9]: 18200 to 36400 ng·h/mL
